Test results taken from ChEMBL document CHEMBL5291721, “A preclinical secondary pharmacology resource illuminates target-adverse drug reaction associations of marketed drugs” (Nat Commun, 2023).

How the values were obtained:
Adenosine receptor A2a = Adenosine receptor A2a (Homo sapiens, UniProt P29274)
[1] = target: T1, Alpha-2A adrenergic receptor (Homo sapiens, UniProt P08913); assay type: functional, cell-based
T1 sequence (P08913 whole entry): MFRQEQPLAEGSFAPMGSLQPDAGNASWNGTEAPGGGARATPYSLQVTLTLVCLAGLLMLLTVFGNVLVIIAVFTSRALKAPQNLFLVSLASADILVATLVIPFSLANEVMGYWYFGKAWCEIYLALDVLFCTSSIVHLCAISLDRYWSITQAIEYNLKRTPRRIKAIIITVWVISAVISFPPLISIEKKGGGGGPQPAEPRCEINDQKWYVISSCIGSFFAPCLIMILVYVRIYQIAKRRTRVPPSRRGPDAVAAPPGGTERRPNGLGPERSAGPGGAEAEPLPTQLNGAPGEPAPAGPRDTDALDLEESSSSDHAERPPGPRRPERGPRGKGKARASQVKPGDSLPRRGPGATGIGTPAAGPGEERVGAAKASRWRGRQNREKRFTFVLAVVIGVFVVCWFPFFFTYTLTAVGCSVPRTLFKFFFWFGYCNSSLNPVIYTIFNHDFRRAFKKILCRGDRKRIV

[2] = target: T2, Cholecystokinin receptor type A (Homo sapiens, UniProt P32238)
T2 sequence (P32238 whole entry): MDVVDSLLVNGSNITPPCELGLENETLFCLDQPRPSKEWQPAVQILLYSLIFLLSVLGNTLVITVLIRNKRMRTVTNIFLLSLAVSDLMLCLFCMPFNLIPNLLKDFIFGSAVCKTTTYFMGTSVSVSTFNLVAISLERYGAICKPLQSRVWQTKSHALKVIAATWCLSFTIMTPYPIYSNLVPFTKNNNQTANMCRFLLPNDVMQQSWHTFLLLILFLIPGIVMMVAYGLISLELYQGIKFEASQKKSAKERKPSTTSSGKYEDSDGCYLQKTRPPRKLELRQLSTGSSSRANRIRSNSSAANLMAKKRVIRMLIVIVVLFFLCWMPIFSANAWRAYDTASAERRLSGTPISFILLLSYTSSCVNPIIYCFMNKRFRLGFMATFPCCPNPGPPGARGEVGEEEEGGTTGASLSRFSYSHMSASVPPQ

D(1A) dopamine receptor = D(1A) dopamine receptor (Homo sapiens, UniProt P21728); assay type: functional, cell-based
Sequence of D(1A) dopamine receptor (P21728 whole entry): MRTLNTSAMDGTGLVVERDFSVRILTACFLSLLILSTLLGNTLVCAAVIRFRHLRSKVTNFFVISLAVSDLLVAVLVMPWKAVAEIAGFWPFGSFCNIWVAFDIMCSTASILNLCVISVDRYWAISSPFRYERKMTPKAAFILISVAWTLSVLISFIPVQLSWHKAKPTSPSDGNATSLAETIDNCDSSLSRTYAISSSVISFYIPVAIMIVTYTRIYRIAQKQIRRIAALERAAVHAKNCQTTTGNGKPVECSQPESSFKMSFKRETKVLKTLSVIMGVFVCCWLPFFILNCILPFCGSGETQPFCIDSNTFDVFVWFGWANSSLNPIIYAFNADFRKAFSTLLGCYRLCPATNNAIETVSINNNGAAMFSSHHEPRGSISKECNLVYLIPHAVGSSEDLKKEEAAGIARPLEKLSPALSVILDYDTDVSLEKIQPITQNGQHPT

[3] = target: Gamma-aminobutyric acid receptor subunit alpha-1 (Rattus norvegicus, UniProt P62813); assay type: functional
Sequence of Gamma-aminobutyric acid receptor subunit alpha-1 (P62813 whole entry): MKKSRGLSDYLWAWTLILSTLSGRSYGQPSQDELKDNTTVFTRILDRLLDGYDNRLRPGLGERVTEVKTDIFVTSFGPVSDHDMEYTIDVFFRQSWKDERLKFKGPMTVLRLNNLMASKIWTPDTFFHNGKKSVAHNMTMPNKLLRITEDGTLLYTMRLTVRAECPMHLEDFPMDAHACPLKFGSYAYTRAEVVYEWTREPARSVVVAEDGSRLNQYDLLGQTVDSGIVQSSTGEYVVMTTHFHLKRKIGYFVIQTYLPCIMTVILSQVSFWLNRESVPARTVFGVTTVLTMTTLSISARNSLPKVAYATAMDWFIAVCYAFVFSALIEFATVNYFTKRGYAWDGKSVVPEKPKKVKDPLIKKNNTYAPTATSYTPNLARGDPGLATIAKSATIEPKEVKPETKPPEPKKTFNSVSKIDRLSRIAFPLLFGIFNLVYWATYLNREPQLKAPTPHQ

[4] = target: Growth hormone secretagogue receptor type 1 (Homo sapiens, UniProt Q92847)
Sequence of Growth hormone secretagogue receptor type 1 (Q92847 whole entry): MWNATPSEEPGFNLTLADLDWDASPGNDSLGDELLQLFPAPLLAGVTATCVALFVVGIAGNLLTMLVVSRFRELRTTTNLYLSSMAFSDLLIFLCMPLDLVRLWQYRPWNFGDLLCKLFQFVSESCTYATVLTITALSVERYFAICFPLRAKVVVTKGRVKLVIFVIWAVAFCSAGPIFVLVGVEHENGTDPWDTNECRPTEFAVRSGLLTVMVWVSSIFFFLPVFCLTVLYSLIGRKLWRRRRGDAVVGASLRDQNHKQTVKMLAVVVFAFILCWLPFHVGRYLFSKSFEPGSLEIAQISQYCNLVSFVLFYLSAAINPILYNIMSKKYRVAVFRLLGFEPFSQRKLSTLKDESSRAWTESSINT

[5] = target: T3, 5-hydroxytryptamine receptor 1A (Homo sapiens, UniProt P08908); assay type: functional, cell-based
T3 sequence (P08908 whole entry): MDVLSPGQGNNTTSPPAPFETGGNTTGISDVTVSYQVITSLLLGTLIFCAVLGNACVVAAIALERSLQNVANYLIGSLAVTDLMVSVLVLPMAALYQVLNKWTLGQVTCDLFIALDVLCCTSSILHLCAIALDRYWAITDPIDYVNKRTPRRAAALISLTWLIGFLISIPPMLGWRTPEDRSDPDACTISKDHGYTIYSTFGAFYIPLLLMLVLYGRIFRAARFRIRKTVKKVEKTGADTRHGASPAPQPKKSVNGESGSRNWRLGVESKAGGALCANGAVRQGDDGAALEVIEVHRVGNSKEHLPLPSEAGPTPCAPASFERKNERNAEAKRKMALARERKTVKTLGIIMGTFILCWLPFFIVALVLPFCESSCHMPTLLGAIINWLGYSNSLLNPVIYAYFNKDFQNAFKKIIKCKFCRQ

[6] = target: 5-hydroxytryptamine receptor 2B (Homo sapiens, UniProt P41595); assay type: functional, cell-based
Sequence of 5-hydroxytryptamine receptor 2B (P41595 whole entry): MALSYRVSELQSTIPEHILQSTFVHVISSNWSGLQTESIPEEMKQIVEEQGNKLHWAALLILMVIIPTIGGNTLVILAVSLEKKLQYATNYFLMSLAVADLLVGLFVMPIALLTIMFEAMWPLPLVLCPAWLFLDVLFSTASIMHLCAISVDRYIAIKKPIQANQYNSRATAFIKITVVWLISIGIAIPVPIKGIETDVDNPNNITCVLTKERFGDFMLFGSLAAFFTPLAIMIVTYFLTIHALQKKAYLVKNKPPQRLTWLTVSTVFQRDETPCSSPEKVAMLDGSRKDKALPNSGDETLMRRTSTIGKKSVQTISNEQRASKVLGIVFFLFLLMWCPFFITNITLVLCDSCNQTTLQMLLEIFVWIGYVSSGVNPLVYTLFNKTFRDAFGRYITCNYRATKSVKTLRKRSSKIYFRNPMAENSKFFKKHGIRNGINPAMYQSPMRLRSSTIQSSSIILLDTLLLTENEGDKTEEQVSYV

[7] = target: T4, 5-hydroxytryptamine receptor 2C (Homo sapiens, UniProt P28335)
T4 sequence (P28335 whole entry): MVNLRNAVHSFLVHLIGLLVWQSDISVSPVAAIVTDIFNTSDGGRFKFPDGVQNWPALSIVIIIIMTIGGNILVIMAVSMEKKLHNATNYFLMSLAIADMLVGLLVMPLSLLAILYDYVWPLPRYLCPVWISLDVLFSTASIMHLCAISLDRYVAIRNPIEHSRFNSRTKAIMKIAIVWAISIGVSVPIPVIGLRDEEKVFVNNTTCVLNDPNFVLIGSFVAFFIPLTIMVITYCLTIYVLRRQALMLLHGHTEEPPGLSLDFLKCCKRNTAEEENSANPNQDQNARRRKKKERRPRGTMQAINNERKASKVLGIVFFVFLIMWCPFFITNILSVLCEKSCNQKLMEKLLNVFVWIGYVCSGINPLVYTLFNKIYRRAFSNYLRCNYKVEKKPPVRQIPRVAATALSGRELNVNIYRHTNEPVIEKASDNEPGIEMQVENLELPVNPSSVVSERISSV

[8] = target: T5, Equilibrative nucleoside transporter 1 (Homo sapiens, UniProt Q99808)
T5 sequence (Q99808 whole entry): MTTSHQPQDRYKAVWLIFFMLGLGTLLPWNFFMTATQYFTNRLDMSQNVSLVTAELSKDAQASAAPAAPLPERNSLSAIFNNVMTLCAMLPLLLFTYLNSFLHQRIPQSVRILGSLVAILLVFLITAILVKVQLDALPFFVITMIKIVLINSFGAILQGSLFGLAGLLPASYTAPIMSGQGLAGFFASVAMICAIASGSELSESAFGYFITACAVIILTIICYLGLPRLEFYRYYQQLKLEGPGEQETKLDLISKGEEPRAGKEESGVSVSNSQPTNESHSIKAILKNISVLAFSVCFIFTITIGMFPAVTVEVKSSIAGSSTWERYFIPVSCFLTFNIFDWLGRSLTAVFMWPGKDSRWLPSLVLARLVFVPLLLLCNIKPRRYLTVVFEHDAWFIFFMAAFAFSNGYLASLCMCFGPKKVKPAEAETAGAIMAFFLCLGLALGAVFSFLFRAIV
Further: assay procedure not described here.

Sequence of Adenosine receptor A2a (P29274 whole entry): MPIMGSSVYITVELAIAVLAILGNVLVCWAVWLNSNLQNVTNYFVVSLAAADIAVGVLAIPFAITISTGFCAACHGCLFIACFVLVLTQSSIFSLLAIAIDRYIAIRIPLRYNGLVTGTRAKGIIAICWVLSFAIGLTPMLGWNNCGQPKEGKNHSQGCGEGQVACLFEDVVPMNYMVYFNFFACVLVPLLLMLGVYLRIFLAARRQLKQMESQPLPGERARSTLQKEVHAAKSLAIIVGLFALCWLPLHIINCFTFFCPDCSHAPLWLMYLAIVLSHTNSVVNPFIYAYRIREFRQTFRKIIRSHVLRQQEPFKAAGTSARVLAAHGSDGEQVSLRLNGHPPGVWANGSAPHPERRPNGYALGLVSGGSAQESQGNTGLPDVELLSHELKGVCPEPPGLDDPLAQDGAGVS

Row | SMILES | AC50 (Adenosine receptor A2a) | AC50 [1] | AC50 [2] | AC50 (D(1A) dopamine receptor) | AC50 [3] | AC50 [4] | AC50 [5] | AC50 [6] | AC50 [7] | AC50 [8]
1 | C[C@H](Nc1ncnc2[nH]cnc12)c1cc2cccc(Cl)c2c(=O)n1-c1ccccc1 [DUVELISIB] | > 30 µM | > 30 µM | > 30 µM | > 30 µM | > 30 µM | > 30 µM | > 30 µM | > 30 µM | > 30 µM | > 30 µM
2 | C[C@H](CS)C(=O)N1CCC[C@H]1C(=O)O [CAPTOPRIL] | > 30 µM | > 10 µM | > 30 µM | > 30 µM | > 10 µM | > 30 µM | > 30 µM | > 10 µM | > 30 µM | > 30 µM
3 | CNC1(C)C2CCC(C2)C1(C)C (stereo not given) [MECAMYLAMINE] | > 10 µM | > 10 µM | > 10 µM | > 10 µM | > 10 µM | > 10 µM | > 10 µM | > 10 µM | > 30 µM | > 10 µM
4 | Nc1c2c(nc3ccccc13)CCCC2O (stereo not given) [VELNACRINE] | > 30 µM | > 30 µM | > 30 µM | > 30 µM | > 30 µM | > 30 µM | > 30 µM | > 30 µM | > 30 µM | > 30 µM
5 | CCC[C@@]1(CCc2ccccc2)CC(O)=C([C@H](CC)c2cccc(NS(=O)(=O)c3ccc(C(F)(F)F)cn3)c2)C(=O)O1 | > 30 µM | 8.6 µM | 27 µM | > 30 µM | > 30 µM | > 30 µM | > 30 µM | 7.5 µM | > 30 µM | > 30 µM
6 | Nc1nnc(-c2cccc(Cl)c2Cl)c(N)n1 [LAMOTRIGINE] | > 30 µM | > 10 µM | > 30 µM | > 30 µM | > 10 µM | > 30 µM | > 10 µM | > 10 µM | > 30 µM | > 30 µM
7 | CO[C@@H]1[C@@H](OC(N)=O)[C@@H](O)[C@H](Oc2ccc3c(O)c(NC(=O)c4ccc(O)c(CC=C(C)C)c4)c(=O)oc3c2C)OC1(C)C [NOVOBIOCIN] | > 30 µM | > 30 µM | > 30 µM | > 30 µM | > 30 µM | > 30 µM | > 30 µM | > 30 µM | > 30 µM | > 30 µM
8 | CN(C)CCN(Cc1ccccc1)c1ccccn1 [TRIPELENNAMINE] | > 10 µM | > 10 µM | > 10 µM | > 10 µM | > 10 µM | > 10 µM | > 10 µM | > 10 µM | > 10 µM | > 30 µM

The next lines start with the values.

Row | AC50 (Adenosine receptor A2a) | AC50 [1] | AC50 [2] | AC50 (D(1A) dopamine receptor) | AC50 [3] | AC50 [4] | AC50 [5] | AC50 [6] | AC50 [7] | AC50 [8] | SMILES
9 | > 30 µM | > 10 µM | > 30 µM | > 10 µM | > 10 µM | > 30 µM | > 10 µM | > 10 µM | > 30 µM | > 30 µM | O=C(O)COC(=O)Cc1ccccc1Nc1c(Cl)cccc1Cl [ACECLOFENAC]
10 | > 30 µM | 4.77 µM | > 30 µM | > 10 µM | > 10 µM | > 30 µM | > 10 µM | 6.4 µM | > 30 µM | > 30 µM | CCOc1ccccc1OCCN[C@H](C)Cc1ccc(OC)c(S(N)(=O)=O)c1 [TAMSULOSIN]
11 | > 30 µM | > 30 µM | > 30 µM | > 30 µM | > 30 µM | > 30 µM | > 30 µM | > 30 µM | > 30 µM | > 30 µM | COC(=O)CCc1ccc(OCC(O)CNC(C)C)cc1 (stereo not given) [ESMOLOL]
12 | > 10 µM | > 10 µM | > 10 µM | > 10 µM | > 10 µM | > 10 µM | > 10 µM | > 10 µM | > 30 µM | > 10 µM | CCC1(c2ccccc2)C(=O)NCNC1=O [PRIMIDONE]
